Read-outs that look alike come from different tables or passages of the source.
Columns and labels:
[1] = tested on: HIV-1 double-mutant strain RES056 (K103N/Y181C); test: microbe, parasite or virus in culture; assay type: cell-based; conditions: for EC50: Human immunodeficiency virus 1, MT4, read-out: EC50 RES056; for RF RES056: ratio EC50(resistant strain)/EC50(wild-type strain); for SI RES056: selectivity index, ratio CC50/EC50, RES056
Method: (§1) All data were calculated using the median optical density (OD) value of three wells.

wild-type HIV-1 (IIIB) = test: microbe, parasite or virus in culture; assay type: cell-based; conditions: for EC50: Human immunodeficiency virus 1, MT4, MT-4 cells, HIV-1 IIIB, MTT method; for RF IIIB: ratio EC50(resistant strain)/EC50(wild-type strain); for SI IIIB: selectivity index, ratio CC50/EC50, IIIB
Method: as §1

[2] = tested on: HIV-1 L100I mutant strain; test: microbe, parasite or virus in culture; assay type: cell-based; conditions: for EC50: Human immunodeficiency virus 1, MT4, read-out: EC50 L100I; for RF L100I: ratio EC50 (resistant viral strain)/EC50 (wild-type viral strain)
Method: as §1

[3] = tested on: HIV-1 Y181C mutant strain; test: microbe, parasite or virus in culture; assay type: cell-based; conditions: for EC50: Human immunodeficiency virus 1, MT4, read-out: EC50 Y181C, MT-4 cells, Y181C, MTT method; for RF Y181C: ratio EC50 (resistant viral strain)/EC50 (wild-type viral strain)
Method: as §1

[4] = tested on: HIV-1 Y188L mutant strain; test: microbe, parasite or virus in culture; assay type: cell-based; conditions: for EC50: Human immunodeficiency virus 1, MT4, read-out: EC50 Y188L; for RF Y188L: ratio EC50 (resistant viral strain)/EC50 (wild-type viral strain)
Method: as §1

[5] = tested on: HIV-1 F227L + V106A mutant strain; test: microbe, parasite or virus in culture; assay type: cell-based; conditions: for EC50: Human immunodeficiency virus 1, MT4, read-out: EC50 F227L + V106A; for RF F227L + V106A: ratio EC50 (resistant viral strain)/EC50 (wild-type viral strain)
Method: as §1

[6] = tested on: HIV-1 E138K mutant strain; test: microbe, parasite or virus in culture; assay type: cell-based; conditions: for EC50: Human immunodeficiency virus 1, MT4, read-out: EC50 E138K; for RF E138K: ratio EC50 (resistant viral strain)/EC50 (wild-type viral strain)
Method: as §1

[7] = tested on: HIV-1 K103N mutant strain; test: microbe, parasite or virus in culture; assay type: cell-based; conditions: for EC50: Human immunodeficiency virus 1, MT4, read-out: EC50 K103N, MT-4 cells, K103N, MTT method; for RF K103N: ratio EC50 (resistant viral strain)/EC50 (wild-type viral strain)
Method: as §1

[8] = Cytotoxicity in mock-infected MT-4 cells, MTT method; assay type: cell-based; conditions: human
Method: The 3-(4,5-dimethylthiazol-2-yl)-2,5-diphenyltetrazolium bromide (MTT) method was used to evaluate the antiviral activity and cytotoxicity of the synthesized compounds as previously described. At the beginning of each experiment, stock solutions (10× final concentration) of test compounds were added in 25 μL volumes to two series of triplicate wells for allowing the simultaneous evaluation of their effects on mock- and HIV-infected cells. The serial 5-fold dilutions of the compounds were made in flat-bottomed 96-well microtiter trays directly, including untreated control HIV-1 and mock infected cell samples for each sample using a Biomek 3000 robot (Beckman Instruments, Fullerton, CA, USA). HIV-1 (IIIB) and mutant HIV-1 strains (RES056, F227L/V106A, L100I, K103N, E138K, Y181C, and Y188L) stock (50 μL at 100–300 CCID50) (50% cell culture infectious dose) or culture medium was added to either the infected or mock-infected wells of the microtiter tray. Mock-infected cells were used to evaluate the effect on uninfected cells to assess the cytotoxicity of the test compounds. Exponentially growing MT-4 cells were centrifuged for […] at 1000 rpm (Eppendorf 5424, Hamburg, Germany) and then the supernatant was discarded. The MT-4 cells were resuspended at 6 × 10^5 cells/mL and 50 μL aliquots were transferred to the microtiter tray wells. At 5 days after infection, the viability of mock- and HIV-infected cells was determined spectrophotometrically by means of MTT assay.
The MTT assay is based on the reduction of yellow-colored MTT (Acros Organics, Geel, Belgium) by mitochondrial dehydrogenase of metabolically active cells to form a blue-purple formazan. The absorbances were read in an eight-channel computer-controlled photometer at the wavelengths of 540 and 690 nm. All data were calculated using the median optical density (OD) value of three wells.

[9] = biological target: T1, recombinant wild-type HIV-1 RT enzyme (Human immunodeficiency virus type 1 group M subtype B, UniProt P03366); test: HIV-1 RT inhibition assay (ELISA, Roche RT assay kit); assay type: biochemical
T1 construct: recombinant wild-type HIV-1 RT enzyme; purchased Roche (Basel, Switzerland)
Method: The HIV-1 RT inhibition assay was performed by using an RT assay kit produced by Roche (Basel, Switzerland).
The biotin-labeled dNTPs were incorporated into the cDNA chain in the presence of RT and bound to streptavidin. The washing buffer was used to wash the unbound dNTPs and add the anti-DIG-POD to the MTPs.
The peroxide substrate (ABST) solution was added to the MTPs, when the unbound anti-DIG-PODs were washed out. […] The absorbance of the sample was determined at OD405 nm using a microtiter plate ELISA reader. The percentage inhibitory activity of RT inhibitors was calculated according to the following formula: % inhibition = [O.D. value with RT but without inhibitors − O.D. value with RT and inhibitors]/[O.D. value with RT and inhibitors − O.D. value without RT and inhibitors].

[10] = mock-infected MT-4 cells, MTT method, read-out: CC50

Row | SMILES | EC50 [1] [nM] | RF RES056 [1] | EC50 (wild-type HIV-1 (IIIB)) [nM] | RF IIIB (wild-type HIV-1 (IIIB)) | EC50 [2] [nM] | EC50 [3] [nM] | EC50 [4] [nM] | EC50 [6] [nM] | CC50 at 5 days [8] [nM] | melting point [°C] | SI RES056 [1] | SI IIIB (wild-type HIV-1 (IIIB)) | other results
1 | Cc1cc(C#N)cc(C)c1Oc1nc(Nc2ccc(B3OC(C)(C)C(C)(C)O3)cc2)nc2ccsc12 [Compound 3a, 3,5-Dimethyl-4-((2-((4-(4,4,5,5-tetramethyl-1,3,2-dioxaborolan-2-yl)phenyl)amino)thieno [3,2-d]pyrimidin-4-yl)oxy)benzonitrile] | > 27400 | > 431 | 64 ± 21 | 1.0 | 2510 ± 155 | 6290 ± 3270 | 6020 ± 3140 | 193 ± 77 | 27400 ± 1200 |  |  |  | RF L100I [2]: 39.4; RF Y181C [3]: 98.8; RF Y188L [4]: 94.7; EC50 [5]: 4950 ± 1980 nM; RF F227L + V106A [5]: 77.8; RF E138K [6]: 3.0; EC50 [7]: 81 ± 8 nM; RF K103N [7]: 1.3; IC50 [9]: 354 ± 43 nM
2 | Cc1cc(C#N)cc(C)c1Oc1nc(Nc2ccc(B3OC(C)(C)C(C)(C)O3)cc2)nc2sccc12 [Compound 3b, 3,5-Dimethyl-4-((2-((4-(4,4,5,5-tetramethyl-1,3,2-dioxaborolan-2-yl)phenyl)amino)thieno [2,3-d]pyrimidin-4-yl)oxy)benzonitrile] | 174000 ± 34500 | 134 | 1300 ± 275 | 1.0 |  |  |  |  | > 254000 |  |  |  | 
3 | Cc1cc(C#N)cc(C)c1Oc1nc(Nc2ccc(B3OC(C)(C)C(C)(C)O3)cc2)nc2ncsc12 [Compound 3d, 3,5-Dimethyl-4-((5-((4-(4,4,5,5-tetramethyl-1,3,2-dioxaborolan-2-yl)phenyl)amino)thiazolo [4,5-d]pyrimidin-7-yl)oxy)benzonitrile] | > 24100 | > 201 | 120 ± 56 | 1.0 |  |  |  |  | 24100 ± 3760 | 117 to 119 | < 1 | 201 | 
4 | Cc1cc(C#N)cc(C)c1Oc1nc(Nc2ccc(B3OC(C)(C)C(C)(C)O3)cc2)nc2scnc12 [Compound 3e, 3,5-Dimethyl-4-((5-((4-(4,4,5,5-tetramethyl-1,3,2-dioxaborolan-2-yl)phenyl)amino)thiazolo [5,4-d]pyrimidin-7-yl)oxy)benzonitrile] | > 26500 | > 123 | 215 ± 91 | 1.0 |  |  |  |  | 26500 ± 1780 |  |  |  | 
5 | Cc1cc(C#N)cc(C)c1Oc1ccnc(Nc2ccc(B3OC(C)(C)C(C)(C)O3)cc2)n1 [Compound 3f, 3,5-Dimethyl-4-((2-((4-(4,4,5,5-tetramethyl-1,3,2-dioxaborolan-2-yl)phenyl)amino)pyrimidin-4-yl)oxy)benzonitrile] | > 30600 | > 206 | 149 ± 49 | 1.0 |  |  |  |  | 30600 ± 1920 | 202 to 204 | < 1 | 206 | 
6 | Cc1cc(C#N)cc(C)c1Oc1nc(Nc2ccc(B3OC(C)(C)C(C)(C)O3)cc2)nc2ccccc12 [Compound 3g, 3,5-Dimethyl-4-((2-((4-(4,4,5,5-tetramethyl-1,3,2-dioxaborolan-2-yl)phenyl)amino)quinazolin-4-yl)oxy)benzonitrile] | > 254000 | > 41.1 | 6170 ± 1830 | 1.0 |  |  |  |  | > 254000 | 147 to 149 |  | > 41 | 
7 | Cc1cc(C#N)cc(C)c1Oc1nc(Nc2ccc(B3OC(C)(C)C(C)(C)O3)cc2)nc2cccnc12 [Compound 3h, 3,5-Dimethyl-4-((2-((4-(4,4,5,5-tetramethyl-1,3,2-dioxaborolan-2-yl)phenyl)amino)pyrido [3,2-d]pyrimidin-4-yl)oxy)benzonitrile] | > 26000 | > 232 | 112 ± 24 | 1.0 |  |  |  |  | 26000 ± 2330 | 177 to 179 | < 1 | 232 | fold more potent than 3g (wild-type HIV-1 (IIIB)): 55 fold
8 | Cc1cc(C#N)cc(C)c1Oc1nc(Nc2ccc(B3OC(C)(C)C(C)(C)O3)cc2)nc2c1CCCC2 [Compound 3i, 3,5-Dimethyl-4-((2-((4-(4,4,5,5-tetramethyl-1,3,2-dioxaborolan-2-yl)phenyl)amino) -5,6,7,8-tetrahydroquinazolin-4-yl)oxy)benzonitrile] | > 27700 | > 145 | 191 ± 88 | 1.0 |  |  |  |  | 27700 ± 1270 | 233 to 235 | < 1 | 145 | 
9 | Cc1cc(C#N)cc(C)c1Oc1nc(Nc2ccc(B3OC(C)(C)C(C)(C)O3)cc2)nc2c1SCCC2 [Compound 3j, 3,5-Dimethyl-4-((2-((4-(4,4,5,5-tetramethyl-1,3,2-dioxaborolan-2-yl)phenyl)amino) -7,8-dihydro-6H-thiopyrano [3,2-d]pyrimidin-4-yl)oxy)benzonitrile] | > 25900 | > 184 | 141 ± 53 | 1.0 |  |  |  |  | 25900 ± 1410 | 201 to 203 | < 1 | 184 | 
10 | O=C1Nc2ccc(Cl)cc2[C@@](C#CC2CC2)(C(F)(F)F)O1 [EFV, efavirenz, reference compound] | 337 ± 149 |  | 3 ± 1 |  | 32 ± 8 | 5 ± 2 | 261 ± 118 | 6 ± 2 |  |  |  |  | EC50 [7]: 71 ± 20 nM; CC50 at 5 days [8, 10]: > 6350 nM
11 | Cc1cc(C#N)cc(C)c1Oc1nc(Nc2ccc(C#N)cc2)nc(N)c1Br [ETR, etravirine, reference compound] | 61 ± 34 |  | 4 ± 1 |  | 8 ± 2 | 16 ± 5 | 19 ± 7 | 10 ± 5 | > 4600 |  |  |  | EC50 [5]: 26 ± 17 nM; EC50 [7]: 3 ± 8 nM
12 | Cc1ccnc2c1NC(=O)c1cccnc1N2C1CC1 [NVP, nevirapine, reference compound] | > 15000 | 99.9 | 151 ± 37 | 1.0 | 623 ± 277 | 5060 ± 922 | 9080 ± 2410 | 168 |  |  |  |  | RF L100I [2]: 4.1; RF Y181C [3]: 33.6; RF Y188L [4]: 60.4; EC50 [5]: 8050 ± 3540 nM; RF F227L + V106A [5]: 53.5; RF E138K [6]: 1.1; RF K103N [7]: 26.1; CC50 at 5 days [8, 10]: > 15000 nM
